≈ marks a conversion by molar mass, not a printed value. Where a name gives a salt, the structure may show the parent alone. Each block holds one molecule with its values, some of them ahead of it.
Columns and labels:
Type in all cases: physicochemical
[1] = Hygroscopicity test by DVS, 25° C. and 90% RH; conditions: moisture sorption
Description: Samples in amounts of about 5 to 25 mg were tested for moisture sorption/desorption profiles at 25° C. under a 0% to 90% relative humidity (RH) cycle according to the pa-rameters in Table 2 below using DVS Intrinsic 1 manufactured by Surface Measurement System Ltd.
Hygroscopicity was measured for the tromethamine salt prepared in Example 3, the L-arginine salt prepared in Comparative Example 2, the meglumine salt prepared in Comparative Example 3, and the potassium salt prepared in Comparative Example 4. Results thereof are shown in FIGS. 14 to 17, respectively, and the results of the weight percent gain according to moisture sorption are shown in Table 6 below.

[2] = Thermogravimetric (TGA) analysis; conditions: TGA 20° C. to 350° C., 10° C./min, nitrogen
Description: Thermogravimetric (TGA) analysis was performed on the tromethamine salt prepared in Example 3, the free base prepared in Comparative Example 1, the L-arginine salt prepared in Comparative Example 2, the meglumine salt prepared in Comparative Example 3, and the potassium salt prepared in Comparative Example 4. Thermogravimetric analysis was performed from 20° C. to 350° C. at a heating rate of 10° C./min under nitrogen conditions using TGA Q50 manufactured by TA Instruments, Inc. The weight loss at about 170° C. or less for each salt was measured, and results thereof are shown in FIG. 2 (tromethamine salt), FIG. 3 (free base), FIG. 6 (L-arginine salt), FIG. 9 (meglumine salt), and 12 (potassium salt), and summarized in Table 4 below.

[3] = Hygroscopicity test, European Pharmacopoeia conditions, 25° C. and 80% RH; conditions: stored 24 hours at 25° C., 80% RH (EP conditions)
Description: Under the hygroscopicity test conditions of the European Pharmacopoeia (EP), the tromethamine salt prepared in Example 3 and the free base prepared in Comparative Example 1 were stored for 24 hours at a temperature of 25° C. and a relative humidity of 80%, and then the mass change of the sample due to moisture sorption was measured.

[4] = Solubility in water and bio-relevant media; conditions: for Final pH: after 24 hours stirring; for solubility at 24 h: thermodynamic from solid, room temperature, 2 mg/mL loading
Description: Solubility in water and bio-relevant media, i.e., stimulated gastric fluid (SGF), fasted state simulated intestinal fluid (FaSSIF), and fed state simulated intestinal fluid (FeSSIF) of the free base and the tromethamine salt of (S)-2-((4-(6-((5-cyanopyridin-2-yl)methoxy)pyridin-2-yl)piperazin-1-yl)methyl)-1-(oxetan-2-ylmethyl)-1H-benzo[d]imidazol-6-carboxylic acid was confirmed.
Buffers for the bio-relevant media were prepared as follows.
Water: Laboratory Milli-Q purified water.
SGF (Stimulated Gastric Fluid): 2.0 g of sodium chloride and 7 mL of hydrochloric acid dissolved in 1000 mL of water was used.
FaSSIF (Fasted State Simulated Intestinal Fluid): A commercial product purchased from Bio-Relevant Company and manufactured according to instructions was used.
FeSSIF (Fed State Simulated Intestinal Fluid): A commercial product purchased from Bio-Relevant Company and prepared according to instructions was used.
For the experiment, about 2 mg of compound (2 mg as free base form) was weighed into each glass vial and then 1 mL of medium was added (final concentration of 2 mg/mL). Then, the sample was continuously stirred for 24 hours in a magnetic stirrer at a speed of […] at room temperature. Then, the pH was measured and the mixture was filtered using MultiScreen®HTS-HV 96-well plate (Merck; 0.45 μm hydrophilic low protein binding Durapore® membrane). Solubility was analyzed using HPLC.

[5] = Drug stability evaluation under stress condition (80° C., open)
Description: The free base and the tromethamine salt of (S)-2-((4-(6-((5-cyanopyridin-2-yl)methoxy)pyridin-2-yl)piperazin-1-yl)methyl)-1-(oxetan-2-ylmethyl)-1H-benzo[d]imidazol-6-carboxylic acid were weighed into each vial and stored under stress conditions to investigate stability.
The stress conditions are as follows: • high temperature open room condition: 80° C.;
Samples were analyzed by XRPD and HPLC at the onset (Day 0) and week 1 of storage.

[6] = XRPD analysis of crystal form under various relative humidity conditions; conditions: 20° C.
Description: The X-ray powder diffraction (XRPD) pattern was measured using DYY884-AERIS-300 manufactured by PANalytical company, and analyzed with a step size of about 0.02° over the range of about 2° to 45° in the […].
The XRPD analysis of the crystalline form 1 of the tromethamine salt of (S)-2-((4-(6-((5-cyanopyridin-2-yl)methoxy)pyridin-2-yl)piperazin-1-yl)methyl)-1-(oxetan-2-ylmethyl)-1H-benzo[d]imidazol-6-carboxylic acid was performed under the conditions of varying relative humidity from 15% RH to 90% RH at 20° C., and the changes in the crystalline form according to the relative humidity were confirmed.

[7] = simulated gastric fluid, SGF (pH 2.0)
[8] = 80° C. (Week 1), high temperature open

Compound: N#Cc1ccc(COc2cccc(N3CCN(Cc4nc5ccc(C(=O)O)cc5n4C[C@@H]4CCO4)CC3)n2)nc1 [Example 3, tromethamine salt of (S)-2-((4-(6-((5-cyanopyridin-2-yl)methoxy)pyridin-2-yl)piperazin-1-yl)methyl)-1-(oxetan-2-ylmethyl)-1H-benzo[d]imidazol-6-carboxylic acid]
Weight percent gain (%) [1]: 1.44% | Weight percent gain (%) ([1]; listed as tromethamine salt): about 1.44% | Weight loss (%) at about 170° C. or less [2]: 0.1207% | Weight percent gain (%) [3]: 0.22% | Final pH ([4]; FaSSIF (pH 6.5)): 6.50 | Final pH ([4]; FeSSIF (pH 5.8)): 5.85 | Final pH ([4]; SGF (pH 2.0)): 1.90 | Final pH ([4]; Water): 7.21 | solubility at 24 h [4, 7]: 710 µg/mL | solubility at 24 h ([4]; FaSSIF (pH 6.5)): > 2000 µg/mL | solubility at 24 h ([4]; FeSSIF (pH 5.8)): 336 µg/mL | solubility at 24 h ([4]; Water): > 2000 µg/mL | Chemical stability by HPLC purity % [5, 8]: 97.32% | Chemical stability by HPLC purity % ([5]; Onset (Day 0)): 97.99% | change in the XRPD pattern ([5]; harsh conditions, 80° C., week 1): did not show any change in the XRPD pattern | purity change rate ([5]; harsh conditions, 80° C., week 1 vs day 0): less than 1% | Crystalline Form ([6]; 15% RH, during desorption): Form 1 | Crystalline Form ([6]; 15% RH, increasing humidity): 1 | Crystalline Form ([6]; 20% RH, increasing humidity): 1 | Crystalline Form ([6]; 25% RH, increasing humidity): 1 | Crystalline Form ([6]; 30% RH, during desorption): Form 1 | Crystalline Form ([6]; 30% RH, increasing humidity): 1 | Crystalline Form ([6]; 35% RH, increasing humidity): 1 | Crystalline Form ([6]; 40% RH, during desorption): Form 1 | Crystalline Form ([6]; 40% RH, increasing humidity): 1 | Crystalline Form ([6]; 45% RH, increasing humidity): 1 | Crystalline Form ([6]; 50% RH, during desorption): intermediate | Crystalline Form ([6]; 50% RH, increasing humidity): 1 | Crystalline Form ([6]; 55% RH, increasing humidity): 1A | Crystalline Form ([6]; 60% RH, increasing humidity): 1A

Compound: N#Cc1ccc(COc2cccc(N3CCN(Cc4nc5ccc(C(=O)O)cc5n4C[C@@H]4CCO4)CC3)n2)nc1.N=C(N)NCCC[C@H](N)C(=O)O [Comparative Example 2, L-arginine salt of (S)-2-((4-(6-((5-cyanopyridin-2-yl)methoxy)pyridin-2-yl)piperazin-1-yl)methyl)-1-(oxetan-2-ylmethyl)-1H-benzo[d]imidazol-6-carboxylic acid]
Weight percent gain (%) [1]: 6.84% | Weight loss (%) at about 170° C. or less [2]: 7.368%

Compound: CNC[C@H](O)[C@@H](O)[C@H](O)[C@H](O)CO.N#Cc1ccc(COc2cccc(N3CCN(Cc4nc5ccc(C(=O)O)cc5n4C[C@@H]4CCO4)CC3)n2)nc1 [Comparative Example 3, meglumine salt of (S)-2-((4-(6-((5-cyanopyridin-2-yl)methoxy)pyridin-2-yl)piperazin-1-yl)methyl)-1-(oxetan-2-ylmethyl)-1H-benzo[d]imidazol-6-carboxylic acid]
Weight percent gain (%) [1]: 17.77% | Weight loss (%) at about 170° C. or less [2]: 2.8132%

Next, values leading:

Weight loss (%) at about 170° C. or less [2]: 3.323% | Weight percent gain (%) [3]: 2.7% | Final pH ([4]; FaSSIF (pH 6.5)): 6.49 | Final pH ([4]; FeSSIF (pH 5.8)): 5.70 | Final pH ([4]; SGF (pH 2.0)): 1.74 | Final pH ([4]; Water): 6.64 | solubility at 24 h [4, 7]: 850 µg/mL (≈ 1580 µM) | solubility at 24 h ([4]; FaSSIF (pH 6.5)): 160 µg/mL (≈ 297 µM) | solubility at 24 h ([4]; FeSSIF (pH 5.8)): 63 µg/mL (≈ 117 µM) | solubility at 24 h ([4]; Water): 106 µg/mL (≈ 196 µM) | Chemical stability by HPLC purity % [5, 8]: 96.70% | Chemical stability by HPLC purity % ([5]; Onset (Day 0)): 97.84%
Compound: N#Cc1ccc(COc2cccc(N3CCN(Cc4nc5ccc(C(=O)O)cc5n4C[C@@H]4CCO4)CC3)n2)nc1 [Comparative Example 1, (S)-2-((4-(6-((5-cyanopyridin-2-yl)methoxy)pyridin-2-yl)piperazin-1-yl)methyl)-1-(oxetan-2-ylmethyl)-1H-benzo[d]imidazol-6-carboxylic acid]

Weight percent gain (%) [1]: 5.97% | Weight loss (%) at about 170° C. or less [2]: 4.284%
Compound: N#Cc1ccc(COc2cccc(N3CCN(Cc4nc5ccc(C(=O)[O-])cc5n4C[C@@H]4CCO4)CC3)n2)nc1.[K+] [Comparative Example 4, potassium salt of (S)-2-((4-(6-((5-cyanopyridin-2-yl)methoxy)pyridin-2-yl)piperazin-1-yl)methyl)-1-(oxetan-2-ylmethyl)-1H-benzo[d]imidazol-6-carboxylic acid]

Source: US20250214968A1, “Novel Salt of GLP-1 Receptor Agonist Compound, Preparation Method Thereof and Pharmaceutical Composition Comprising Thereof” (Ildong Pharmaceutical Co., Ltd., priority 2022, published 2025)
